Laboratory results as given in patent US7033578B2, “Antimycotic nail varnish composition” (Polichem S.A., priority 2000, dated 2006).

System: Tricophytes Mentagrophytes
Test: Inhibition of growth of the onychomycosis pathogen on standard plates (Sabourand Dex., 30° C.)
Assay type: cell-based
Conditions: ciclopirox 8%, hydroxypropylchitosan 1%; Sabourand Dex. at 30° C.; 10, 20 and 30 μl applied
Experimental: Inhibition of the pathogen responsible for onychomycosis in humans was tested in accordance with standard procedures on standard plates. Comparison of the antimycotic effect of ciclopirox (8%) alone and, hydroxypropychitosan (1%) alone with the combination of these two compounds (8 and 1%, respectively) with respect to the growth of Tricophytes Mentagrophytes on Sabourand Dex. at 30° C. gave the following results (amounts applied in each case 10, 20 and 30 μl): […]

`Cc1cc(C2CCCCC2)n(O)c(=O)c1` [ciclopirox] was tested, and the “antimycotic effect: inhibition of growth of Tricophytes Mentagrophytes” value was “good inhibition”.
